“And” between values parts separate entries of the source, which are not always exact repeats. Equal entries are not always repeated. Where two headings read alike, the source gives them in different places.
Tests used:
[1] = system: A549 lung cancer cells; assay: A549 proliferation, sulforhodamine B (SRB) assay; assay type: cell-based, human; conditions: sulforhodamine B assay, triplicate
Method: FIG. 28 is a graph showing the results of a cell proliferation assay. A549 cells, which are human lung cancer cells, are grown in plates for five days in medium containing 5% FCS and compound. The number of cells is quantified by staining with sulforhodamine B.

[2] = target: T1, eIF4E/eIF4G interaction (Mus musculus, UniProt P63073); assay: Fluorescence polarization assay: binding of fluorescein-labeled eIF4G peptide to eIF4E; set-up: species or system murine; conditions: for IC50 / IC50 (μM) (4E/4G FP): triplicate, SD<±10%; for IC50: read-out: IC50 (μM) (4E/4G FP)
T1 construct: made in house; host or cells: E. coli
T1 sequence (P63073 whole entry): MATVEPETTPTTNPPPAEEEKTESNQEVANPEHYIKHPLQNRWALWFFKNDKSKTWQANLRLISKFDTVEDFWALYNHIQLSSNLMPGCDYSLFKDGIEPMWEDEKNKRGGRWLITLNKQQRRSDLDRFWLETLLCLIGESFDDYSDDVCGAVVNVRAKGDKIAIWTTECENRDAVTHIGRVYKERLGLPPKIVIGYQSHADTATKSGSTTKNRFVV
Method: We adapted this assay to a microwell plate format and used it to screen the 16,000 compound Chembridge DiverSet E library. […] For screening and subsequent peptide binding assays measurements of fluorescence polarization were made using an LJL Analyst plate reader. For the screening assay a solution containing approximately 5 μM meIF4E, 60 nM labeled peptide, 0.05% bovine γ-globulin, and 2 mM DTT in a buffer composed of 50 mM sodium phosphate and 50 mM potassium chloride at pH 6.5 was used. […] The curve fitting for estimation of binding constants used equations derived by Roehrl et al.^22 Measurements of fluorescence polarization and anisotropy were made in black 384-well plates (Corning) using an Analyst plate reader (LJL Biosystems) Compounds were transferred to plates during the screening using a custom-built Seiko pin transfer robot at the Institute for Chemistry and Cell Biology (ICCB) at Harvard Medical School.
A fluorescence polarization (FP) assay was developed to measure binding of a peptide containing the conserved eIF4E-binding motif to eIF4E.
The assay was adapted to a microwell plate format and used to screen a number of libraries comprised of small molecule libraries for potential eIF4E/eIF4G interaction inhibitors.

[3] = Homo sapiens, A549, Table 1 of b280
[4] = Homo sapiens, A549, Table 1 of b347

Row | Compound | GI50 [1, 3] [µM] | IC50 ([2]; Table 1 of b280) [µM] | GI50 ([1]; Table 1) | IC50 ([2]; Table 1 of b347) | also measured
1 | O=C(O)/C(Cc1ccccc1[N+](=O)[O-])=N/Nc1nc(-c2ccc(-c3ccccc3)cc2)cs1 | 4 | – | – | – | –
2 | O=C(O)/C(Cc1ccccc1[N+](=O)[O-])=N/Nc1nc(-c2ccc3ccccc3c2)cs1 | 6 | 215 | – | – | –
3 | O=C(O)/C(Cc1ccccc1[N+](=O)[O-])=N/Nc1nc(-c2ccc(N3CCCC3)cc2)cs1 | > 20 | > 600 | – | – | –
4 | O=C(O)/C(Cc1ccccc1)=N/Nc1nc(-c2ccc3c(c2)OCCCO3)cs1 | – | 400 | – | – | –
5 | O=C(O)/C(Cc1ccccc1)=N/Nc1nc(-c2ccc(N3CCOCC3)cc2)cs1 | – | > 125 | – | – | –
6 | O=C(O)/C(=C\c1ccccc1)NCc1nc(-c2ccccc2)cs1 | – | > 600 | – | – | –
7 | O=C(O)C(Cc1ccccc1[N+](=O)[O-])=NNc1nc(-c2ccc(/N=N/c3ccccc3)cc2)cs1 (mixture of isomers) | 4 | 150 | – | – | –
8 | O=C(O)C(Cc1ccccc1)=NNc1nc(-c2ccc3c(c2)OCCO3)cs1 (mixture of isomers) | – | 170 | – | – | –
9 | O=C(O)C(Cc1ccccc1)=NNc1nc(-c2ccc(C3CCCCC3)cc2)cs1 (mixture of isomers) | – | 100 | – | – | –
10 | O=C(O)/C(Cc1ccccc1[N+](=O)[O-])=N/Nc1nc(-c2ccc(Cl)c(Cl)c2)cs1 [E-1, 2-{[4-(3,4-Dichloro-phenyl)-thiazol-2-yl]-hydrazono}-3-(2-nitro-phenyl)-propionic acid] | – | – | 3 µM | – | GI50 ([1]; Table 1, listed as E-4a): 3 µM
11 | O=C(O)/C(Cc1ccccc1[N+](=O)[O-])=N/Nc1nc(-c2ccccc2)cs1 [E-2] | – | – | 7 µM | – | GI50 ([1]; Table 1, listed as E-4r): 7 µM
12 | O=C(O)/C(Cc1ccccc1)=N/Nc1nc(-c2ccc(Cl)c(Cl)c2)cs1 [E-3, 2-{[4-(3,4-Dichloro-phenyl)thiazol-2-yl]-hydrazono}-3-phenyl-propionic acid] | – | 355 | 6.5 µM | 355 µM | GI50 ([1]; Table 1, listed as E-4s): 6.5 µM
13 | O=C(O)/C(Cc1ccccc1)=N/Nc1nc(-c2ccccc2)cs1 [E-4, 3-Phenyl-2-[(4-phenyl-thiazol-2-yl)-hydrazono]-propionic acid] | – | > 600 | 14 µM and 17 µM | > 600 µM | GI50 ([1]; Table 1, listed as E-4c): 16 µM
14 | O=C(O)/C(=N/Nc1nc(-c2ccccc2)cs1)c1ccccc1 [E-6, Phenyl-[(4-phenyl-thiazol-2-yl)-hydrazono]-acetic acid] | – | – | 10 µM | – | GI50 ([1]; Table 1, listed as E-4h): 10 µM
15 | Cc1sc(N/N=C(\Cc2ccccc2)C(=O)O)nc1-c1ccccc1 [E-9, 2-[(5-Methyl-4-phenyl-thiazol-2-yl)-hydrazono]-3-phenyl-propionic acid] | – | 350 | 6 µM | > 300 µM | GI50 ([1]; Table 1, listed as E-4n): 6 µM
16 | O=C(O)/C(Cc1ccccc1)=N/Nc1nc(-c2ccccc2)c(-c2ccccc2)s1 [E-10, 2-[(4,5-Diphenyl-thiazol-2-yl)-hydrazono]-3-phenyl-propionic acid] | – | 90 | 1.5 µM | 100 µM and 88 µM | GI50 ([1]; Table 1, listed as E-4o): 1.5 µM
17 | O=C(O)/C(Cc1ccccc1)=N/Nc1nc2ccccc2s1 [E-11, 2-(Benzothiazol-2-yl-hydrazono)-3-phenyl-propionic acid] | – | – | 4 µM | – | GI50 ([1]; Table 1, listed as E-4p): 4 µM
18 | COC(=O)/C(Cc1ccccc1)=N/Nc1nc(-c2ccccc2)cs1 [E-13, 3-Phenyl-2-[(4-phenyl-thiazol-2-yl)-hydrazono]-propionic acid methyl ester] | – | – | 7 µM | – | GI50 ([1]; Table 1, listed as E-4f): 7 µM
19 | O=C(O)C(Cc1ccccc1)=NNc1nnc(-c2ccccc2)s1 [E-16, 3-Phenyl-2-[(5-phenyl-[1,3,4]thiadiazol-2-yl)-hydrazono]-propionic acid] | – | – | – | > 600 µM | GI50 [1, 4]: 9 µM
20 | O=C(O)/C(Cc1ccccc1)=N/Nc1ccc(-c2ccccc2)nn1 [E-17, 3-Phenyl-2-[(6-phenyl-pyridazin-3-yl)-hydrazono]-propionic acid] | – | – | – | > 600 µM | GI50 [1, 4]: 7.5 µM

Row | Compound | GI50 [1, 3] [µM] | IC50 ([2]; Table 1 of b280) [µM] | GI50 ([1]; Table 1) | IC50 ([2]; Table 1 of b347) | also measured
21 | NC(=O)/C(Cc1ccccc1)=N/Nc1nc(-c2ccccc2)cs1 [E-21, 3-Phenyl-2-[(4-phenyl-thiazol-2-yl)-hydrazono]-propionamide] | – | – | – | > 600 µM | –
22 | O=C(O)/C(Cc1ccccc1[N+](=O)[O-])=N/Nc1nc(-c2ccc(Cl)c(Cl)c2)cs1 [Z-1, 2-{[4-(3,4-Dichloro-phenyl)-thiazol-2-yl]-hydrazono}-3-(2-nitro-phenyl)-propionic acid] | 6 | – | – | – | GI50 [1, 4]: 5 ± 1 µM
23 | O=C(O)/C(Cc1ccccc1[N+](=O)[O-])=N/Nc1nc(-c2ccccc2)cs1 [Z-2] | – | > 600 | > 20 µM | > 600 µM | GI50 ([1]; Table 1, listed as Z-4r): > 20 µM
24 | O=C(O)/C(Cc1ccccc1)=N/Nc1nc(-c2ccc(Cl)c(Cl)c2)cs1 [Z-3, 2-{[4-(3,4-Dichloro-phenyl)thiazol-2-yl]-hydrazono}-3-phenyl-propionic acid] | – | 300 | 14 µM | – | GI50 ([1]; Table 1, listed as Z-4s): 14 µM
25 | O=C(O)/C(Cc1ccccc1)=N/Nc1nc(-c2ccccc2)cs1 [Z-4, 3-Phenyl-2-[(4-phenyl-thiazol-2-yl)-hydrazono]-propionic acid] | 17 | 240 | – | 240 µM | GI50 [1, 4]: > 20 µM
26 | C(/Cc1ccccc1)=N/Nc1nc(-c2ccccc2)cs1 [Z-5, N-Phenethylidene-N′-(4-phenyl-thiazol-2-yl)-hydrazine] | 7 | > 600 | – | > 600 µM | GI50 [1, 4]: 7 µM
27 | O=C(O)/C(=N/Nc1nc(-c2ccccc2)cs1)c1ccccc1 [Z-6, Phenyl-[(4-phenyl-thiazol-2-yl)-hydrazono]-acetic acid] | 13 | > 600 | – | > 600 µM | GI50 [1, 4]: 13 µM
28 | C/C(=N\Nc1nc(-c2ccccc2)cs1)C(=O)O [Z-7, 2-[(4-Phenyl-thiazol-2-yl)-hydrazono]-propionic acid] | > 20 | > 600 | – | > 600 µM | GI50 [1, 4]: > 20 µM
29 | Cc1sc(N/N=C(\Cc2ccccc2)C(=O)O)nc1-c1ccccc1 [Z-9, 2-[(5-Methyl-4-phenyl-thiazol-2-yl)-hydrazono]-3-phenyl-propionic acid] | 4 | 240 | – | 240 µM | GI50 [1, 4]: 4 µM
30 | O=C(O)/C(Cc1ccccc1)=N/Nc1nc(-c2ccccc2)c(-c2ccccc2)s1 [Z-10, 2-[(4,5-Diphenyl-thiazol-2-yl)-hydrazono]-3-phenyl-propionic acid] | 1 | 50 | – | 50 µM | potency compared with its E isomer ([2]; eIF4E/4G assay): two-fold more potent; potency compared with the initial hit ([2]; eIF4E/4G assay): one order of magnitude more potent; GI50 [1, 4]: 1 µM
31 | O=C(O)/C(Cc1ccccc1)=N/Nc1nc2ccccc2s1 [Z-11, 2-(Benzothiazol-2-yl-hydrazono)-3-phenyl-propionic acid] | – | > 600 | > 20 µM | > 600 µM | GI50 ([1]; Table 1, listed as Z-4p): > 20 µM
32 | COC(=O)/C(Cc1ccccc1)=N/Nc1nc(-c2ccccc2)cs1 [Z-13, 3-Phenyl-2-[(4-phenyl-thiazol-2-yl)-hydrazono]-propionic acid methyl ester] | 11 | > 600 | – | > 600 µM | GI50 [1, 4]: 11 µM
33 | OC/C(Cc1ccccc1)=N/Nc1nc(-c2ccccc2)cs1 [Z-15, 3-Phenyl-2-[(4-phenyl-thiazol-2-yl)-hydrazono]-propan-1-ol] | 14 | > 600 | – | > 600 µM | GI50 [1, 4]: 14 µM
34 | O=C(NC(Cc1ccccc1)C(=O)O)c1nc(-c2ccccc2)cs1 (stereo not shown) [compound 18, 3-Phenyl-2-[(4-phenyl-thiazole-2-carbonyl)-amino]-propionic acid] | – | – | – | > 600 µM | –
35 | O=C(O)C(Cc1ccccc1)C(=O)Nc1nc(-c2ccccc2)cs1 (stereo not shown) [compound 19, 2-Benzyl-N-(4-phenyl-thiazol-2-yl)-malonamic acid] | – | – | – | > 600 µM | –
36 | O=C(O)C(Cc1ccccc1)NCc1nc(-c2ccccc2)cs1 (stereo not shown) [compound 20, 3-Phenyl-2-[(4-phenyl-thiazol-2-ylmethyl)-amino]-propionic acid] | – | – | – | – | IC50 (μM) (4E/4G FP) ([2]; Table 1 of b347): insoluble
37 | O=C(O)C(CNc1nc(-c2ccccc2)cs1)Cc1ccccc1 (stereo not shown) [compound 22, 2-Benzyl-3-(4-phenyl-thiazol-2-ylamino)-propionic acid] | – | – | – | > 600 µM | –
38 | O=C(NC(Cc1ccccc1)C(=O)O)c1nc(-c2ccccc2)cs1 (stereo not shown) [drawing 69] | – | > 600 | – | – | –
39 | O=C(O)C(Cc1ccccc1)C(=O)Nc1nc(-c2ccccc2)cs1 (stereo not shown) [drawing 70] | – | > 600 | – | – | –
40 | O=C(O)C(Cc1ccccc1)NCc1nc(-c2ccccc2)cs1 (stereo not shown) [drawing 71] | – | – | – | – | IC50 (μM) (4E/4G FP) ([2]; Table 1 of b280): insoluble

Source: patent US8257931B2 (President and Fellows of Harvard College, priority 2005, dated 2012)
